Test results taken from patent US4078083A, “Novel prostanoic acids” (Hoechst Aktiengesellschaft, priority 1973, dated 1978).
Converted amounts (≈) assume the structure as drawn.

Experiments:
[1] = tested on: unstriped musculature (isolated rat stomach); assay: Effect on the unstriped musculature (isolated rat stomach according to Vane); format: cell-based, rat (Wistar); conditions: for EC50: 37° C, activity relative to contraction after 600 ng/ml PGA2, Table 1, read-out: Action on the unstriped musculature (isolated rat stomach) ED50
Description: Effect on the unstriped musculature (isolated rat stomach according to Vane, Br. J. Pharmac. Chemother., 12 344 (1957)).
The test was carried out on Wistar rats of both sexes having a weight of 200 to 220 g. The animals were killed by a blow onto the neck, the stomach was rapidly taken out and put into a Petri dish containing a pre-heated cancer solution. The fundus which is easily to be distinguished from the pyloric part because of its grey color, was separated and opened longitudinally by a longitudinal cut. Transversal cuts in counter-direction to each other led to a stripe which could be hung into the organ bath. The organ bath contained the usual cancer solution which was maintained at a temperature of 37° C and which was risen in bubbles with a mixture of 95 % O2 and 5 % CO2. A writing lever charged with 1 g served to register on a kymograph the contractions produced by adding the substance to be examined to the organ bath. The test criterion was the contraction occurring after the addition of the substance to be examined. The degree of activity was determined by comparing the contraction occurring after 600 ng/ml PGA2. The values expressed in % with regard to the comparison preparation were used to draw a dose-activity-curve which allowed to determine the medium activity dose.
All substances were present as stock-solutions in absolute alcohol and were diluted to their final concentration with phosphate buffer (pH = 7.4).

blood pressure (cat) = assay: Test for the effect on the blood circulation (hypotensive properties, Kannegiesser and Lee); format: in vivo
Description: Test for the effect on the blood circulation
The hypotensive properties were examined in accordance with the methods described by Kannegiesser and Lee, Nature 229, 498 (1971).
Test animals were cats of both sexes having a weight of 2.0 to 3.0 kg.
The animals were anesthesized with pentobarbital in an amount of 1.7 to 2.8 mg/ml in 0.9 % NaCl-solution as continuous infusion with 5 mg/kg/hour and pretreated with pentolinium (Ansolysen, May & Baker) with 10 mg/animal by the intraperitoneal route. The test substances were administered through the Vena jugularis. The blood pressure was measured in the A. carotis ext. directly and recorded by means of a Statham pressure sensor on a multi-channel recorder.
The maximum change of the systolic and diastolic blood pressure was measured in mm Hg.
All test preparations were present as stock solutions in absolute alcohol and were diluted to the end concentration immediately before the test beginning in phosphate buffer (pH = 7.4).

[2] = tested on: bronchospasm by acetylquoline (Guinea pig); assay: Bronchospasmolytic activity according to Konzett-Rossler, acetylquoline bronchospasm; format: in vivo; conditions: Cavia porcellus, iv, irritant acetylquoline, read-out: Bronchospasmolysis ID50, acetylquoline
Description: (§1) test of intravenously administered preparations for bronchospasmolytic activity according to Konzett-Rossler.
(§2) Except for irrelevant modifications, the test arrangement used largely corresponded to the description given by H. Konzett and R. Rossler, Arch. exp. Path. Pharmakol. 195, 71 (1940)). Test animals were male white Guinea pigs having a weight of 400 to 500 g. They were anesthesized with hexobarbital and urethane. All preparations to be administered were diluted with phosphate buffer (pH = 7.4) and administered in a volume of 0.1 ml.
(§3) Physiological or pharmacological effects were registered by measuring the air volume in the lung when the maximum blowing pressure was kept constant and a constant volume was maintained by respiration above atmospheric pressure. Capacity modifications in the respiratory tract show themselves in an increase or decrease of the air volume absorbed by the lung under the given constant blowing pressure. To produce a heavy bronchospasm acetylquoline or histamine were injected by the intravenous route. The dosage unit of the irritant was chosen such that an about 70 to 80 % decrease of the absorption capacity of the lung was obtained. The substance to be examined was administered by the intravenous route in the V. jugularis. 30 seconds thereafter the already evaluated dosage unit of the irritant was injected once more. The medium inhibition dose was red off from the dose activity curve drawn either graphically or by means of regression analysis.

[3] = tested on: bronchospasm by histamine (Guinea pig); assay: Bronchospasmolytic activity according to Konzett-Rossler, histamine bronchospasm; format: in vivo; conditions: for ED50: Cavia porcellus, iv, Guinea pig, irritant histamine, read-out: Bronchospasmolysis ID50, Histamine
Description: as §1, §2, §3

Question: With CCCCCC(O)/C=C/C1CCC(=O)C1CCCCCCC(=O)O (mixture of isomers) [Example 4, rac. 15-α-Hydroxy-9-oxo-13-trans-prostenoic Acid] as the compound, how does the EC50 ([1]; isolated rat stomach) read?
Answer: 0.1 µg/mL

Question: What about the “Blood pressure (modifications in mm Hg), first value (systolic)” value (blood pressure (cat); at 0.5 μg/kg i.v. (cat)) of the same compound?
Answer: -22 mm Hg

Question: What about the “Blood pressure (modifications in mm Hg), second value (diastolic)” value (blood pressure (cat); at 0.5 μg/kg i.v. (cat)) of the same compound?
Answer: -27 mm Hg

Question: What about the ED50 [2] of the same compound?
Answer: 0.1 µg/kg

Question: And the ED50 [3]?
Answer: 0.1 µg/kg

Question: Which “ED50 in the isolated rat stomach” value ([1]; isolated rat stomach) does the source give for CCCCCC(O)C=C[C@H]1CCC(O)[C@@H]1CC=CCOCC(=O)O (mixture of isomers) [Example 29 A, rac. 9,15-dihydroxy-3-oxa-5,13-trans-prostadienic acid] here?
Answer: 3.1 µg/mL (≈ 9.11 µM)

Question: What does the source list for CCCCCC(O)/C=C/C1CCC(=O)C1CCC(C)CCCC(=O)O (mixture of isomers) [Example 5, rac. 15-α-Hydroxy-5-methyl-9-oxo-13-trans-prostenoic Acid]?
Answer: spasmogen activity ([1]; in words): good spasmogen activity; EC50 ([1]; isolated rat stomach): 0.2 µg/mL; Blood pressure (modifications in mm Hg), first value (systolic) (blood pressure (cat); after 5 μ/kg i.v. (cat)): -20 mm Hg; Blood pressure (modifications in mm Hg), second value (diastolic) (blood pressure (cat); after 5 μ/kg i.v. (cat)): -30 mm Hg; blood-pressure lowering activity (blood pressure (cat); in words, compared with 15-α-hydroxy-9-oxo-13-trans-prostenoic acid): reduced as compared with 15-α-hydroxy-9-oxo-13-trans-prostenoic acid; ED50 [2]: 0.4 µg/kg; bronchodilating activity ([3]; in words, irritant not specified): good bronchodilating activity

Question: For CCCCCC(O)/C=C/C1CCC(=O)C1CCCCCC(C)C(=O)O (mixture of isomers) [Example 8, rac. 15-α-Hydroxy-2-methyl-9-oxo-13-trans-prostenoic Acid], which EC50 ([1]; isolated rat stomach) is on record?
Answer: 1.3 µg/mL

Question: And the “Blood pressure (modifications in mm Hg), one value printed (systolic and diastolic not separated)” value (blood pressure (cat); after 5 μ/kg i.v. (cat))?
Answer: 0 mm Hg

Question: What about the ED50 [2] of the same compound?
Answer: > 10 µg/kg

Question: With CCCCCC(O)/C=C/C1CCC(=O)C1CCCCC(C)CC(=O)O (mixture of isomers) [Example 7, rac. 15-α-Hydroxy-3-methyl-9-oxo-13-trans-prostenoic Acid] as the compound, how does the EC50 ([1]; isolated rat stomach) read?
Answer: 1 µg/mL

Question: And the “Blood pressure (modifications in mm Hg), first value (systolic)” value (blood pressure (cat); after 5 μ/kg i.v. (cat))?
Answer: -10 mm Hg

Question: And the “Blood pressure (modifications in mm Hg), second value (diastolic)” value (blood pressure (cat); after 5 μ/kg i.v. (cat))?
Answer: -20 mm Hg

Question: And the ED50 [2]?
Answer: 1 µg/kg

Question: What about the ED50 [3] of the same compound?
Answer: 4 µg/kg

Question: What does the source list for CCCCCC(O)/C=C/C1CCC(=O)C1CCCC(C)CCC(=O)O (mixture of isomers) [Example 6, rac. 15-α-Hydroxy-4-methyl-9-oxo-13-trans-prostenoic Acid]?
Answer: EC50 ([1]; isolated rat stomach): 0.5 µg/mL; Blood pressure (modifications in mm Hg), first value (systolic) (blood pressure (cat); after 5 μ/kg i.v. (cat)): -45 mm Hg; Blood pressure (modifications in mm Hg), second value (diastolic) (blood pressure (cat); after 5 μ/kg i.v. (cat)): -50 mm Hg; ED50 [2]: 0.5 µg/kg; ED50 [3]: 0.9 µg/kg
